Source: patent publication US6573279B1, “Isoquinoline derivatives or salts thereof” (priority 1999, dated 2003)
Where a name gives a salt, the structure may show the parent alone.

Legend:
[1] = tested on: right atrium sample, spontaneous cardiac rate; experiment: Test on cardiac rate lowering effect (spontaneously beating isolated right atrium in Magnus tube); settings: Cavia porcellus, 0.5 h; concentration lowering the spontaneous cardiac rate by 30%; guinea pig right atrium; data 30 minutes after addition
Method: 2. Test on Cardiac Rate Lowering Effect
The test on cardiac rate lowering effect was carried out by a method according to Walter, K., et al. Eur. J. Pharmacol., 104(1-2):9-18, 1984.
Male guinea pigs of a Hartley strain having a body weight of about 250 to 400 g were fainted away by knocking the head and killed by draining out the blood, and the heart was excised. A right atrium sample was prepared in a Tyrode's solution which was fully aerated with 95% oxygen and 5% carbon dioxide gas. The sample was applied to a hook made of stainless steel and suspended at a load tension of 1.0 g in a Magnus tube filled with a Tyrode's solution which was well aerated with 95% oxygen and 5% carbon dioxide gas, whereby the spontaneously pulsing cardiac rate was recorded. After suspending, the sample was allowed to stand for a stabilization period of 1 hour or more, the test compound was cumulatively added into a Magnus tube every 30 to 45 minutes and a concentration vs. effect curve was determined from the data after 30 minutes from the administration of the substance, whereby the effect was judged. The cardiac rate lowering effect was compared in terms of the concentration (EC30) of the substance which lowered the spontaneous cardiac rate to an extent of 30% from the data before the administration.

[2] = Test on convulsion expression; format: in vivo, rat; settings: 40 mg/kg i.v. (tail vein), once; male Wister rats; observed about 1 hour
Method: 3. Test on Convulsion Expression
Male rats of a Wister strain having a body weight of 250 to 350 g under awaking were fixed in a cage, and the test compound was administered from a tail vein. The test compound was administered at a dose of either 20 mg/kg (i.v.) or 40 mg/kg (i.v.) once for each rat. […] The influence of the test compound on the spontaneous behavior of the rat was evaluated by the fact whether or not the convulsion was noted within the observed period.

Row | Structure (SMILES) | melting point [°C] | EC30 [1] [µM] | General Findings (convulsion) [2]
1 | COc1cc2c(cc1OC)CN(C(=O)C1CCCN(CCC(=O)Nc3ccc4c(c3)OCO4)C1)CC2 (racemic) [Example 2, (±)-3-[3-(6,7-dimethoxy-1,2,3,4-tetrahydroisoquinoline-2-carbonyl)piperidino]-N-(3,4-methylenedioxyphenyl)propanamide hydrochloride] | – | 0.3 | No abnormal finding
2 | COc1cc2c(cc1OC)CN(C(=O)[C@@H]1CCCN(CCC(=O)Nc3ccc4c(c3)OCO4)C1)CC2 [Example 5, (−)-3-[(R)-3-(6,7-dimethoxy-1,2,3,4-tetrahydroisoquinoline-2-carbonyl)piperidino]-N-(3,4-methylenedioxyphenyl)propanamide L-tartrate] | – | 0.38 | No abnormal finding
3 | COc1cc2c(cc1OC)CN(C(=O)C1CCCN(CCNC(=O)c3ccc(F)cc3)C1)CC2 (stereo not drawn) [Example 40] | – | 0.33 | No abnormal finding
4 | COc1cc2c(cc1OC)CN(C(=O)[C@@H]1CCCN(CCNC(=O)c3ccc(F)cc3)C1)CC2 [Example 49] | – | 0.29 | No abnormal finding
5 | COc1cc2c(cc1OC)CN(C(=O)C1CCCN(CCC(=O)Nc3ccc4ncsc4c3)C1)CC2 (stereo not drawn) [Example 14] | – | 0.47 | No abnormal finding
6 | COc1ccc(NC(=O)CCN2CCCC(C(=O)N3CCc4cc(OC)c(OC)cc4C3)C2)cc1 (racemic) [Example 4, (±)-3-[3-(6,7-dimethoxy-1,2,3,4-tetrahydroisoquinoline-2-carbonyl)piperidino]-N-(4-methoxyphenyl)propanamide hydrochloride] | – | 0.57 | No abnormal finding
7 | COc1cc2c(cc1OC)CN(C(=O)[C@H]1CCCN(CCNC(=O)c3ccc(F)cc3)C1)CC2 [Example 50] | – | 0.31 | No abnormal finding
8 | COc1cc2c(cc1OC)CN(C(=O)C1CCCN(CCC(=O)Nc3cccc(Cl)c3)C1)CC2 (stereo not drawn) [Example 12] | – | 0.27 | –
9 | COc1cc2c(cc1OC)CN(C(=O)C1CCCN(CCNC(=O)c3ccc4c(c3)OCCO4)C1)CC2 (stereo not drawn) [Example 30] | – | – | No abnormal finding
10 | COc1cc(C(=O)NCCN2CCCC(C(=O)N3CCc4cc(OC)c(OC)cc4C3)C2)ccc1C (stereo not drawn) [Example 28] | – | – | No abnormal finding
11 | COc1cc2c(cc1OC)CN(C(=O)[C@@H]1CCCN(CCC(=O)Nc3ccc4c(c3)OCO4)C1)CC2 (as salt: tartrate) [Example 5, (−)-3-[(R)-3-(6,7-dimethoxy-1,2,3,4-tetrahydroisoquinoline-2-carbonyl)piperidino]-N-(3,4-methylenedioxyphenyl)propanamide L-tartrate] | 174 to 175 | – | –
12 | COc1cccc(C(=O)NCCN2CCCC(C(=O)N3CCc4cc(OC)c(OC)cc4C3)C2)c1 (racemic) [Example 10, (±)-N-{2-[3-(6,7-dimethoxy-1,2,3,4-tetrahydroisoquinoline-2-carbonyl)-piperidino]ethyl}-3-methoxybenzamide oxalate] | – | 0.27 | No abnormal finding
13 | COc1ccc(C(=O)NCCN2CCCC(C(=O)N3CCc4cc(OC)c(OC)cc4C3)C2)cc1C (stereo not drawn) [Example 26] | – | 0.24 | No abnormal finding
14 | COc1cc2c(cc1OC)CN(C(=O)C1CCCN(CCNC(=O)c3ccc(F)c(F)c3)C1)CC2 (stereo not drawn) [Example 29] | – | 0.29 | No abnormal finding
15 | COc1cc2c(cc1OC)CN(C(=O)C1CCCN(CCNC(=O)c3ccc4c(c3)OCO4)C1)CC2 (racemic) [Example 9, (±)-N-{2-[3-(6,7-dimethoxy-1,2,3,4-tetrahydrolsoquinoline-2-carbonyl)piperidino]ethyl}-3,4-methylenedioxybenzamide hydrochloride] | – | 0.27 | No abnormal finding
16 | COc1cc2c(cc1OC)CN(C(=O)C1CCCN(CC(=O)Nc3ccc4c(c3)OCO4)C1)CC2 (racemic) (as salt: oxalate) [Example 8, (±)-2-[3-(6,7-dimethoxy-1,2,3,4-tetrahydroisoquinoline-2-carbonyl)piperidino]-N-(3,4-methylenedioxyphenyl)ethanamide oxalate] | 157 to 159 | – | –
17 | COc1cc2c(cc1OC)CN(C(=O)[C@H]1CCCN(CCC(=O)Nc3ccc4c(c3)OCO4)C1)CC2 [Example 6, (+)-3-[(S)-3-(6,7-dimethoxy-1,2,3,4-tetrahydroisoquinoline-2-carbonyl)piperidino]-N-(3,4-methylenedioxyphenyl)propanamide D-tartrate] | – | 0.32 | No abnormal finding
18 | COc1cc2c(cc1OC)CN(C(=O)C1CCCN(CCC(=O)Nc3ccc4c(c3)OCO4)C1)CC2 (racemic) (as salt: HCl) [Example 2, (±)-3-[3-(6,7-dimethoxy-1,2,3,4-tetrahydroisoquinoline-2-carbonyl)piperidino]-N-(3,4-methylenedioxyphenyl)propanamide hydrochloride] | 226 to 228 | – | –
19 | COc1ccc(C(=O)NCCN2CCCC(C(=O)N3CCc4cc(OC)c(OC)cc4C3)C2)cc1F (stereo not drawn) [Example 27] | – | 0.41 | No abnormal finding

Further lines, with some results ahead:

Row | melting point [°C] | Structure (SMILES) | EC30 [1] [µM] | General Findings (convulsion) [2]
20 | 153 to 154 | COc1ccc(C(=O)NCCN2CCC=C(C(=O)N3CCc4cc(OC)c(OC)cc4C3)C2)cc1 [Example 47] | – | No abnormal finding
21 | 154 to 155 | COc1cc2c(cc1OC)CN(C(=O)[C@H]1CCCN(CCNC(=O)c3ccc4c(c3)OCO4)C1)CC2 [Example 38] | 0.29 | No abnormal finding
22 | 124 to 133 | COc1cc2c(cc1OC)CN(C(=O)C1CCCN(CCNC(=O)c3ccc4c(c3)N(C)C(=O)CO4)C1)CC2 (stereo not drawn) (as salt: salt) [Example 35] | – | –
23 | 131 to 133 | COc1cc2c(cc1OC)CN(C(=O)C1CN(CCNC(=O)c3ccc4c(c3)OCO4)C1)CC2 [Example 48] | – | –
24 | 133 to 136 | COc1cc2c(cc1OC)CN(C(=O)C1CCCN(CCNC(=O)c3cccc(Br)c3)C1)CC2 (stereo not drawn) (as salt: salt) [Example 41] | – | –
25 | 138 to 140 | COc1cc2c(cc1OC)C(C)(C)CN(C(=O)C1CCCN(CCNC(=O)c3ccc4c(c3)OCO4)C1)C2 (stereo not drawn) (as salt: salt) [Example 51] | – | –
26 | 130 to 138 | COc1cc2c(cc1OC)CN(C(=O)C1CCCN(CCNC(=O)c3ccc4c(c3)OCC(=O)N4C)C1)CC2 (stereo not drawn) (as salt: salt) [Example 34] | – | –
27 | 195 to 196 | O=C(CCN1CCCC(C(=O)N2CCc3ccccc3C2)C1)Nc1ccc2c(c1)OCO2 (stereo not drawn) (as salt: salt) [Example 18] | – | –
28 | 187 to 191 | COc1cc2c(cc1OC)CN(C(=O)[C@H]1CCCN(CCNC(=O)c3ccc(F)cc3)C1)CC2 (as salt: salt) (hydrate or solvate) [Example 50] | – | –
29 | 203 to 206 | COc1cc2c(cc1OC)CN(C(=O)C1CCN(CCC(=O)Nc3ccc4c(c3)OCO4)CC1)CC2 (as salt: HCl) [Example 19] | – | –
30 | 150 to 151 | COc1cc2c(cc1OC)CN(C(=O)[C@@H]1CCCN(CCNC(=O)c3ccc4c(c3)OCO4)C1)CC2 [Example 37] | 0.3 | No abnormal finding
31 | 120 to 124 | COc1cc2c(cc1OC)CN(C(=O)C1CCCN(CCNC(=O)c3ccc(F)c(F)c3)C1)CC2 (stereo not drawn) (as salt: salt) [Example 29] | – | –
32 | 126 to 130 | COc1cc2c(cc1OC)CN(C(=O)C1CCCN(CCNC(=O)c3ccc4c(c3)OCCO4)C1)CC2 (stereo not drawn) (as salt: salt) [Example 30] | – | –
33 | 113 to 116 | COc1cc2c(cc1OC)CN(C(=O)C1CCCN(CCNC(=O)c3ccc4c(c3)OC(F)(F)O4)C1)CC2 (stereo not drawn) (as salt: salt) [Example 31] | – | –
